# In US20230085307A1, “PYRIDAZINONE COMPOUND AND HERBICIDE” (NISSAN CHEMICAL CORPORATION, priority 2019, published 2023):
# Tests used:
# [1] = tested on: barnyard grass; assay: Test Example 3: herbicidal effect by foliage application, Wagner pot (Table 18, symbol H); assay type: in vivo, barnyard grass (Echinochloa crus-galli); conditions: amount of applied herbicide 320 g/ha
# Summary of the method: (§1)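 Plants were sown in alluvial soil held under 0.1–0.5 cm standing water and grown 14 days in a greenhouse at 25–30 °C. An emulsifiable formulation, water-diluted to the set dose, was then sprayed onto the foliage, and effects were scored three weeks later using previously defined criteria.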
# [2] = tested on: Chinese sprangletop; assay: Test Example 3: herbicidal effect by foliage application, Wagner pot (Table 18, symbol D); assay type: in vivo, chinese sprangletop (Leptochloa chinensis); conditions: amount of applied herbicide 320 g/ha
# Summary of the method: as §1
# [3] = tested on: rice flat sedge; assay: Test Example 3: herbicidal effect by foliage application, Wagner pot (Table 18, symbol E); assay type: in vivo, rice flat sedge (Cyperus iria); conditions: amount of applied herbicide 320 g/ha
# Summary of the method: as §1
# [4] = tested on: southern crabgrass; assay: Test Example 4: herbicidal effect by soil treatment (Table 19, symbol F); assay type: in vivo, southern crabgrass (Digitaria ciliaris); conditions: amount of applied herbicide 320 g/ha
# Summary of the method: (§2)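 Emulsion of test compound, water-diluted to predetermined amount, sprayed on soil after sowing (seed depth ~1.5 cm, sterilized diluvial soil). Greenhouse, 25–30° C. Effect graded at three weeks post-spray.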
# [5] = tested on: green foxtail; assay: Test Example 4: herbicidal effect by soil treatment (Table 19, symbol G); assay type: in vivo, green foxtail (Setaria viridis); conditions: amount of applied herbicide 320 g/ha
# Summary of the method: as §2
# [6] = tested on: barnyard grass; assay: Test Example 4: herbicidal effect by soil treatment (Table 19, symbol H); assay type: in vivo, barnyard grass (Echinochloa crus-galli); conditions: amount of applied herbicide 320 g/ha
# Summary of the method: as §2
# [7] = tested on: wild oat; assay: Test Example 4: herbicidal effect by soil treatment (Table 19, symbol I); assay type: in vivo, wild oat (Avena fatua); conditions: amount of applied herbicide 320 g/ha
# Summary of the method: as §2
# [8] = tested on: blackgrass; assay: Test Example 4: herbicidal effect by soil treatment (Table 19, symbol J); assay type: in vivo, blackgrass (Alopecurus myosuroides); conditions: amount of applied herbicide 320 g/ha
# Summary of the method: as §2
# [9] = tested on: Italian ryegrass; assay: Test Example 4: herbicidal effect by soil treatment (Table 19, symbol K); assay type: in vivo, Italian ryegrass (Lolium multiflorum); conditions: amount of applied herbicide 320 g/ha
# Summary of the method: as §2
# [10] = tested on: windgrass; assay: Test Example 4: herbicidal effect by soil treatment (Table 19, symbol L); assay type: in vivo, windgrass (Apera spica-venti); conditions: amount of applied herbicide 320 g/ha
# Summary of the method: as §2
# [11] = tested on: velvetleaf; assay: Test Example 4: herbicidal effect by soil treatment (Table 19, symbol M); assay type: in vivo, velvetleaf (Abutilon theophrasti); conditions: amount of applied herbicide 320 g/ha
# Summary of the method: as §2
# [12] = tested on: redroot pigweed; assay: Test Example 4: herbicidal effect by soil treatment (Table 19, symbol N); assay type: in vivo, redroot pigweed (Amaranthus retroflexus); conditions: amount of applied herbicide 320 g/ha
# Summary of the method: as §2
# [13] = tested on: lambsquarters; assay: Test Example 4: herbicidal effect by soil treatment (Table 19, symbol O); assay type: in vivo, lambsquarters (Chenopodium album); conditions: amount of applied herbicide 320 g/ha
# Summary of the method: as §2
# [14] = tested on: chickweed; assay: Test Example 4: herbicidal effect by soil treatment (Table 19, symbol P); assay type: in vivo, common chickweed (Stellaria media); conditions: amount of applied herbicide 320 g/ha
# Summary of the method: as §2
# [15] = tested on: false cleavers; assay: Test Example 4: herbicidal effect by soil treatment (Table 19, symbol Q); assay type: in vivo, false cleavers (Galium spurium); conditions: amount of applied herbicide 320 g/ha
# Summary of the method: as §2
# [16] = tested on: persian speedwell; assay: Test Example 4: herbicidal effect by soil treatment (Table 19, symbol R); assay type: in vivo, Persian speedwell (Veronica persica); conditions: amount of applied herbicide 320 g/ha
# Summary of the method: as §2
# [17] = tested on: southern crabgrass; assay: Test Example 5: herbicidal effect by foliage application, plastic box (Table 20, symbol F); assay type: in vivo, southern crabgrass (Digitaria ciliaris); conditions: foliage application, 320 g/ha
# Summary of the method: (§3)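 Post-emergence foliar test in sterilized diluvial soil. Compound applied as water-diluted emulsion at a predetermined rate to 14-day-old plants; evaluation at three weeks.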
# [18] = tested on: green foxtail; assay: Test Example 5: herbicidal effect by foliage application, plastic box (Table 20, symbol G); assay type: in vivo, green foxtail (Setaria viridis); conditions: foliage application, 320 g/ha
# Summary of the method: as §3
# [19] = tested on: barnyard grass; assay: Test Example 5: herbicidal effect by foliage application, plastic box (Table 20, symbol H); assay type: in vivo, barnyard grass (Echinochloa crus-galli); conditions: foliage application, 320 g/ha
# Summary of the method: as §3
# [20] = tested on: wild oat; assay: Test Example 5: herbicidal effect by foliage application, plastic box (Table 20, symbol I); assay type: in vivo, wild oat (Avena fatua); conditions: foliage application, 320 g/ha
# Summary of the method: as §3
# [21] = tested on: blackgrass; assay: Test Example 5: herbicidal effect by foliage application, plastic box (Table 20, symbol J); assay type: in vivo, blackgrass (Alopecurus myosuroides); conditions: foliage application, 320 g/ha
# Summary of the method: as §3
# [22] = tested on: Italian ryegrass; assay: Test Example 5: herbicidal effect by foliage application, plastic box (Table 20, symbol K); assay type: in vivo, Italian ryegrass (Lolium multiflorum); conditions: foliage application, 320 g/ha
# Summary of the method: as §3
# [23] = tested on: windgrass; assay: Test Example 5: herbicidal effect by foliage application, plastic box (Table 20, symbol L); assay type: in vivo, windgrass (Apera spica-venti); conditions: foliage application, 320 g/ha
# Summary of the method: as §3
# [24] = tested on: velvetleaf; assay: Test Example 5: herbicidal effect by foliage application, plastic box (Table 20, symbol M); assay type: in vivo, velvetleaf (Abutilon theophrasti); conditions: foliage application, 320 g/ha
# Summary of the method: as §3
# [25] = tested on: redroot pigweed; assay: Test Example 5: herbicidal effect by foliage application, plastic box (Table 20, symbol N); assay type: in vivo, redroot pigweed (Amaranthus retroflexus); conditions: foliage application, 320 g/ha
# Summary of the method: as §3
# [26] = tested on: lambsquarters; assay: Test Example 5: herbicidal effect by foliage application, plastic box (Table 20, symbol O); assay type: in vivo, lambsquarters (Chenopodium album); conditions: foliage application, 320 g/ha
# Summary of the method: as §3
# [27] = tested on: chickweed; assay: Test Example 5: herbicidal effect by foliage application, plastic box (Table 20, symbol P); assay type: in vivo, common chickweed (Stellaria media); conditions: foliage application, 320 g/ha
# Summary of the method: as §3
# [28] = tested on: false cleavers; assay: Test Example 5: herbicidal effect by foliage application, plastic box (Table 20, symbol Q); assay type: in vivo, false cleavers (Galium spurium); conditions: foliage application, 320 g/ha
# Summary of the method: as §3
# [29] = tested on: persian speedwell; assay: Test Example 5: herbicidal effect by foliage application, plastic box (Table 20, symbol R); assay type: in vivo, Persian speedwell (Veronica persica); conditions: foliage application, 320 g/ha
# Summary of the method: as §3
# [30] = evaluated three weeks after application
compound,measurement,setting,value
COc1ccc(F)cc1-c1sc2ccc(C)cc2c1-c1c(O)c(C)nn(C)c1=O [2-150],herbicidal effect on H: barnyard grass,[1],4 (Herbicidal rate of 70% or more and less than 90%)
same,herbicidal effect on D: Chinese sprangletop,[2],2 (Herbicidal rate of 20% or more and less than 40%)
same,herbicidal effect on E: rice flat sedge,[3],5 (Herbicidal rate of 90% or more (almost completely withered))
same,"F: southern crabgrass, herbicidal effect rating",[4],0 (Herbicidal rate of 5% or less (almost no effect))
same,"G: green foxtail, herbicidal effect rating",[5],0 (Herbicidal rate of 5% or less (almost no effect))
same,"H: barnyard grass, herbicidal effect rating",[6],0 (Herbicidal rate of 5% or less (almost no effect))
same,"I: wild oat, herbicidal effect rating",[7],0 (Herbicidal rate of 5% or less (almost no effect))
same,"J: blackgrass, herbicidal effect rating",[8],0 (Herbicidal rate of 5% or less (almost no effect))
same,"K: Italian ryegrass, herbicidal effect rating",[9],0 (Herbicidal rate of 5% or less (almost no effect))
same,"L: windgrass, herbicidal effect rating",[10],0 (Herbicidal rate of 5% or less (almost no effect))
same,"M: velvetleaf, herbicidal effect rating",[11],1 (Herbicidal rate of 5% or more and less than 20%)
same,"N: redroot pigweed, herbicidal effect rating",[12],3 (Herbicidal rate of 40% or more and less than 70%)
same,"O: lambsquarters, herbicidal effect rating",[13],2 (Herbicidal rate of 20% or more and less than 40%)
same,"P: chickweed, herbicidal effect rating",[14],4 (Herbicidal rate of 70% or more and less than 90%)
same,"Q: false cleavers, herbicidal effect rating",[15],0 (Herbicidal rate of 5% or less (almost no effect))
same,"R: persian speedwell, herbicidal effect rating",[16],5 (Herbicidal rate of 90% or more (almost completely withered))
same,herbicidal effect on F: southern crabgrass (criteria 0-5),[17]; [30],0 (Herbicidal rate of 5% or less (almost no effect))
same,herbicidal effect on G: green foxtail (criteria 0-5),[18]; [30],0 (Herbicidal rate of 5% or less (almost no effect))
same,herbicidal effect on H: barnyard grass (criteria 0-5),[19]; [30],0 (Herbicidal rate of 5% or less (almost no effect))
same,herbicidal effect on I: wild oat (criteria 0-5),[20]; [30],1 (Herbicidal rate of 5% or more and less than 20%)
same,herbicidal effect on J: blackgrass (criteria 0-5),[21]; [30],4 (Herbicidal rate of 70% or more and less than 90%)
same,herbicidal effect on K: Italian ryegrass (criteria 0-5),[22]; [30],3 (Herbicidal rate of 40% or more and less than 70%)
same,herbicidal effect on L: windgrass (criteria 0-5),[23]; [30],3 (Herbicidal rate of 40% or more and less than 70%)
same,herbicidal effect on M: velvetleaf (criteria 0-5),[24]; [30],4 (Herbicidal rate of 70% or more and less than 90%)
same,herbicidal effect on N: redroot pigweed (criteria 0-5),[25]; [30],5 (Herbicidal rate of 90% or more (almost completely withered))
same,herbicidal effect on O: lambsquarters (criteria 0-5),[26]; [30],3 (Herbicidal rate of 40% or more and less than 70%)
same,herbicidal effect on P: chickweed (criteria 0-5),[27]; [30],5 (Herbicidal rate of 90% or more (almost completely withered))
same,herbicidal effect on Q: false cleavers (criteria 0-5),[28]; [30],4 (Herbicidal rate of 70% or more and less than 90%)
same,herbicidal effect on R: persian speedwell (criteria 0-5),[29]; [30],5 (Herbicidal rate of 90% or more (almost completely withered))
Cc1nn(C)c(=O)c(-c2c(-c3ccc(F)cc3)sc3cc(F)ccc23)c1O [3-001],herbicidal effect on H: barnyard grass,[1],5 (Herbicidal rate of 90% or more (almost completely withered))
same,herbicidal effect on D: Chinese sprangletop,[2],5 (Herbicidal rate of 90% or more (almost completely withered))
same,herbicidal effect on E: rice flat sedge,[3],5 (Herbicidal rate of 90% or more (almost completely withered))
same,"herbicidal effect, F: southern crabgrass",[4],5 (Herbicidal rate of 90% or more (almost completely withered))
same,"herbicidal effect, G: green foxtail",[5],4 (Herbicidal rate of 70% or more and less than 90%)
same,"herbicidal effect, H: barnyard grass",[6],4 (Herbicidal rate of 70% or more and less than 90%)
same,"herbicidal effect, I: wild oat",[7],4 (Herbicidal rate of 70% or more and less than 90%)
same,"herbicidal effect, J: blackgrass",[8],3 (Herbicidal rate of 40% or more and less than 70%)
same,"herbicidal effect, K: Italian ryegrass",[9],5 (Herbicidal rate of 90% or more (almost completely withered))
same,"herbicidal effect, L: windgrass",[10],4 (Herbicidal rate of 70% or more and less than 90%)
same,"herbicidal effect, M: velvetleaf",[11],0 (Herbicidal rate of 5% or less (almost no effect))
same,"herbicidal effect, N: redroot pigweed",[12],5 (Herbicidal rate of 90% or more (almost completely withered))
same,"herbicidal effect, O: lambsquarters",[13],5 (Herbicidal rate of 90% or more (almost completely withered))
same,"herbicidal effect, P: chickweed",[14],5 (Herbicidal rate of 90% or more (almost completely withered))
same,"herbicidal effect, Q: false cleavers",[15],3 (Herbicidal rate of 40% or more and less than 70%)
same,"herbicidal effect, R: persian speedwell",[16],4 (Herbicidal rate of 70% or more and less than 90%)
same,"F: southern crabgrass, herbicidal effect grade",[17]; three weeks after application,5 (Herbicidal rate of 90% or more (almost completely withered))
same,"G: green foxtail, herbicidal effect grade",[18]; three weeks after application,5 (Herbicidal rate of 90% or more (almost completely withered))
same,"H: barnyard grass, herbicidal effect grade",[19]; three weeks after application,5 (Herbicidal rate of 90% or more (almost completely withered))
same,"I: wild oat, herbicidal effect grade",[20]; three weeks after application,5 (Herbicidal rate of 90% or more (almost completely withered))
same,"J: blackgrass, herbicidal effect grade",[21]; three weeks after application,5 (Herbicidal rate of 90% or more (almost completely withered))
same,"K: Italian ryegrass, herbicidal effect grade",[22]; three weeks after application,5 (Herbicidal rate of 90% or more (almost completely withered))
same,"L: windgrass, herbicidal effect grade",[23]; three weeks after application,5 (Herbicidal rate of 90% or more (almost completely withered))
same,"M: velvetleaf, herbicidal effect grade",[24]; three weeks after application,5 (Herbicidal rate of 90% or more (almost completely withered))
same,"N: redroot pigweed, herbicidal effect grade",[25]; three weeks after application,5 (Herbicidal rate of 90% or more (almost completely withered))
same,"O: lambsquarters, herbicidal effect grade",[26]; three weeks after application,5 (Herbicidal rate of 90% or more (almost completely withered))
same,"P: chickweed, herbicidal effect grade",[27]; three weeks after application,5 (Herbicidal rate of 90% or more (almost completely withered))
same,"Q: false cleavers, herbicidal effect grade",[28]; three weeks after application,5 (Herbicidal rate of 90% or more (almost completely withered))
same,"R: persian speedwell, herbicidal effect grade",[29]; three weeks after application,5 (Herbicidal rate of 90% or more (almost completely withered))
